Test [1] is described as follows: Model dough, GLC analysis of non-polar lipids (cowpea LAH). It counts as biochemical, wheat. The conditions noted are these: Example 1, FIG. 7, compared with activity on polar lipids and free fatty acid formation. As to the method:
10 g of flour and 0.020 g sodium chloride were mixed in a 10 g Farinograph mixing bowl for 1 minute either with or without enzymes. Subsequently water (500 Brabender units) was added and mixed for 5 minutes at 30° C. After mixing the dough was placed at 32° C. for 1 hour, and then frozen and freeze dried prior to further analysis.
Perkin Elmer 8420 Capillary Gas Chromatography equipped with WCOT fused silica column 12.5 m×0.25 mm ID×0.1 μm 5% phenyl-methyl-silicone (CP Sil 8 CB from Crompack). • Carrier: Helium. • Injection: 1.5 μl with split. • Detector: FID. 385° C.
Sample preparation: 50 mg wheat lipid was dissolved in 12 ml heptane: pyridine 2:1 containing an internal standard heptadecane, 2 mg/ml. 500 μl of the sample was transferred to a crimp vial. 100 μl MSTFA (N-Methyl-N-trimethylsilyltrifluoracetamid) was added and the reaction incubated for 15 minutes at 90° C. Calculation: Response factors for mono-di-triglycerides and free fatty acid were determined from reference mixtures of these components. Based on these response factors the mono-di-triglycerides and free fatty acids in wheat lipids were calculated.
The non-polar lipids were analysed by GLC.

Test [2] can be described thus: Minibread dough, HPLC analysis of galactolipids. The format is biochemical, wheat. As to the method:
10 g of fully proofed dough was immediately frozen and freeze dried. The freeze-dried dough was milled in a coffee mill and passed through an 800 micron screen. 1.5 g freeze-dried dough was scaled in a 15 ml centrifuge tube with screw top lid. 7.5 ml water saturated butanol (WSB) was added. The centrifuge tube was placed in a boiling water bath for 10 minutes. The tubes were placed in a Rotamix and rotated at 45 rpm for 20 minutes at ambient temperature and then placed in a boiling water bath again for a further 10 minutes prior to being Rotated on the Rotamix for a further 30 minutes at ambient temperature. The tubes were centrifuged at 3500 g for 5 minutes. 5 ml supernatant was transferred into a vial and the WSB was evaporated to dryness under a steam of nitrogen.
Determination of Free Fatty Acids for Lipase Assay, JAOCS 63:89). Determination of Glycolipids and Phospholipids by HPLC.
The calibration curve for PC was used to calculate the amounts of the glycolipids and phospholipids.

Where [3] appears, read: Cowpea LAH % 0.1195, minibread dough.
[4] abbreviates: Cowpea LAH % 0.239, minibread dough.
The mark [5] stands for this setting: Cowpea LAH % 0.478, minibread dough.
The mark [6] stands for this setting: Cowpea LAH % 0.956, minibread dough.
[7] abbreviates: Test no. 2, Cowpea LAH 0.05 % in dough, fully proofed minibread dough.
Setting [8] is: Test no. 3, Cowpea LAH 0.15 % in dough, fully proofed minibread dough.
Where [9] appears, read: Test no. 3, Cowpea LAH 0.357 Units/kg flour, no DGDG added, minibread dough.
Where [10] appears, read: Test no. 4, Cowpea LAH 0.357 Units/kg flour + DGDG 55% pure 0.2 %, minibread dough.

As for “Cowpea LAH: lipolytic acyl hydrolase (E.C. 3.1.1.26) isolated from cowpea (Vigna unguiculata) leaves; hydrolyses glycolipid and phospholipid, not triglyceride”, the “activity on triglyceride (GLC analysis)” value in test [1] is reported as “no activity”. Besides, the DGDG in test [2] (setting [3]) is recorded as 2.08 ‰; in test [2] (setting [4]) it was 2.01 ‰; in test [2] (setting [5]) it was 1.89 ‰; in test [2] (setting [6]), 1.60 ‰; in test [2] (setting [7]), 2.03 ‰; in test [2] (setting [8]), 1.92 ‰. Besides, the values for the DGDG in test [2] (setting [9]) and in test [2] (setting [10]) were 1.93 ‰ and 2.4 ‰, respectively. The DGMG is 0.23 ‰ in test [2] (setting [3]); 0.20 ‰ in test [2] (setting [4]); 0.24 ‰ in test [2] (setting [5]); 0.20 ‰ in test [2] (setting [6]); 0.27 ‰ in test [2] (setting [7]); 0.28 ‰ in test [2] (setting [8]). Also, the values for the DGMG in test [2] (setting [9]) and in test [2] (setting [10]) were 0.23 ‰ and 0.25 ‰, respectively.

The record behind these values is patent USRE43135E1, “Method of improving dough and bread quality” (Danisco A/S, priority 2001, dated 2012).
